Here are results for 4 compounds from patent publication US20120196830A1, “KITS AND IMPROVED COMPOSITIONS FOR TREATING LOWER URINARY TRACT DISORDERS” (priority 2005, published 2012).

The subject of one series is cancer patients. The settings on record: cited from earlier work.
Series [1] in a line: Uncharged fraction of lidocaine by Henderson-Hasselbalch equation. In kind it is physicochemical. From the text:
For the acute-acting anesthetic to function properly, it typically needs to be in a pH environment that enables the chemical form of the drug to be neutral thereby allowing the molecule to traverse the membranes and gain access to the neurons underlying the bladder epithelium. To achieve this pH, a buffer must be provided so that the pH is sufficiently near to the isoelectric point of the chosen anesthetic to ensure that a sufficient portion of the acute-acting anesthetic is present in an uncharged state. A sufficient portion can minimally be 20% up to 100% in its uncharged state and those skilled in the art can use the drug's isoelectric point and the Henderson-Hasselbalch equation to calculate the minimal pH of the solution to achieve the 20% minimal uncharged amount. Preferably, the pH of the solution is such that at least about 40% of the acute-acting anesthetic is present in an uncharged state. […]. This buffering can be achieved by the addition of bicarbonate buffer, Tris (Tris(hydroxymethyl)aminomethane) buffer, MOPS buffer (3-(N-morpholino)propanesulfonic acid), HEPES (N-(2-hydroxyethyl)piperazine-N′-(2-ethanesulfonic acid) buffer, ACES (2-[(2-amino-2-oxoethyl)amino]ethanoesulfonic acid) buffer, ADA (N-(2-acetamido)-2-iminodiacetic acid) buffer, AMPSO (3-[(1,1-dimethyl-2-hydroxyethyl)amino]-2-propanesulfonic acid) buffer, BES (N,N-bis(2-hydroxyethyl)-2-aminoethanesulfonic acid buffer, Bicine (N,N-bis(2-hydroxyethylglycine) buffer, Bis-Tris (bis-(2-hydroxyethyl)imino-tris(hydroxymethyl)methane buffer, CAPS (3-(cyclohexylamino)-1-propanesulfonic acid) buffer, CAPSO (3-(cyclohexylamino)-2-hydroxy-1-propanesulfonic acid) buffer, CHES (2-(N-cyclohexylamino)ethanesulfonic acid) buffer, DIPSO (3-[N,N-bis(2-hydroxyethyl)amino]-2-hydroxy-propanesulfonic acid) buffer, HEPPS(N-(2-hydroxyethylpiperazine)-N′-(3-propanesulfonic acid), buffer, HEPPSO(N-(2-hydroxyethyl)piperazine-N′-(2-hydroxypropanesulfonic acid) buffer, MES (2-(N-morpholino)ethanesulfonic acid) buffer, triethanolamine buffer, imidazole buffer, glycine buffer, ethanolamine buffer, phosphate buffer, MOPSO (3-(N-morpholino)-2-hydroxypropanesulfonic acid) buffer, PIPES (piperazine-N,N′-bis(2-ethanesulfonic acid) buffer, POPSO (piperazine-N,N′-bis(2-hydroxypropaneulfonic acid) buffer; TAPS(N-tris[hydroxymethyl)methyl-3-aminopropanesulfonic acid) buffer, TAPSO (3-[N-tris(hydroxymethyl)methylamino]-2-hydroxy-propanesulfonic acid) buffer, TES (N-tris(hydroxymethyl)methyl-2-aminoethanesulfonic acid) buffer, tricine (N-tris(hydroxymethyl)methylglycine buffer), 2-amino-2-methyl-1,3-propanediol buffer, 2-amino-2-methyl-1-propanol buffer, or another buffer that can buffer the composition to be administered at the appropriate pH value. The buffer to be selected, and the concentration of the buffer to be used, can be chosen by one of ordinary skill in the art to buffer the composition to be administered at a pH value that is close to the isoelectric point of the local anesthetic. […]. For bupivacaine, it is 8.1. For etidocaine, it is 7.7. For flecamide, it is 9.3. Typically, the pH achieved by the use of the buffer is between about 7.0 and about 12.0. More typically, the pH achieved by the use of the buffer is between about 7.0 and about 9.5. Typically, when bicarbonate buffer is used, it is sodium bicarbonate buffer; however, other counterions can be used as described above.

Series [2] deals with IC patients. The following applies: intravesical instillations; cited from earlier work.
Series [3] relates to IC patients. The settings on record: intravesical, interstitial cystitis; cited from earlier work.

Like-named read-outs stand apart in the source and are kept apart here.

As to `O=S(=O)(O)CCS` [Mesnex, mesna], the “frequency of adverse events (all AEs)” value in the series with cancer patients (IV) is 85%; in the series with cancer patients (oral), 89%.
Turning to `CCN(CC)CC(=O)Nc1c(C)cccc1C` [lidocaine], the lidocaine uncharged was found to be 5% in series [1] (pH 6.6); 10% in series [1] (pH 7.0); 20% in series [1] (pH 7.2); 30% in series [1] (pH 7.5); 40% in series [1] (pH 7.7); 50% in series [1] (pH 7.9).
On to `C[S+](C)[O-]` [DMSO, dimethylsulfoxide], for which the “IC patients treated with benefit” value in the series on IC patients [2] was approximately 50%.
Regarding heparin, the “patients treated in whom effective” value with IC patients [3] is recorded as “approximately 50%”.
